# Earlier results as cited in patent US20250000913A1, “SALMONELLA ENGINEERED FOR NONTOXIC COLONIZATION OF TUMORS” (priority 2021, published 2025).
# Columns and labels:
# [1] = in vivo
# [2] = mouse, in vivo
Structure (SMILES),half-life of circulating CKD-516 [1],day on which weight gain resumed [2] [days],weight loss [2]
COc1cc(C(=O)c2ccc(-c3csc(NC(=O)[C@@H](N)C(C)C)n3)cc2-n2cncn2)cc(OC)c1OC.Cl [CKD-516],about 5 hours,,
COc1cccc2c1C(=O)c1c(O)c3c(c(O)c1C2=O)C[C@@](O)(C(=O)CO)C[C@@H]3O[C@H]1C[C@H](N)[C@H](O)[C@H](C)O1 [doxorubicin],,21,over 25%
